The CheMixHub ionic liquid set

Assay: xn = mol fraction of the nth substance listed
Settings: 100 kPa

CCCCCCCC[n+]1ccccc1.[Br-] + CC(C)[C@H](NC(=O)CN)C(=O)O + O
electrical conductivity [S/m]
Settings | 288.15 K | 293.15 K | 298.15 K
x2 = 0.0008946, x1 = 0.006158 | – | 1.51 | 1.7
x2 = 0.0008946, x1 = 0.00616 | 1.33 | – | –
x2 = 0.0008949, x1 = 0.00588 | – | – | 1.65
x2 = 0.0008949, x1 = 0.005882 | – | 1.47 | –
x2 = 0.0008949, x1 = 0.005884 | 1.29 | – | –
x2 = 0.0008952, x1 = 0.005573 | – | 1.42 | 1.6
x2 = 0.0008952, x1 = 0.005575 | 1.25 | – | –
x2 = 0.0008955, x1 = 0.005246 | – | – | 1.55
x2 = 0.0008955, x1 = 0.005248 | 1.21 | 1.38 | –
x2 = 0.0008958, x1 = 0.004885 | – | – | 1.49
x2 = 0.0008958, x1 = 0.004887 | 1.17 | 1.32 | –
x2 = 0.0008961, x1 = 0.004505 | – | 1.27 | 1.43
x2 = 0.0008961, x1 = 0.004507 | 1.12 | – | –
x2 = 0.0008965, x1 = 0.004077 | 1.05 | 1.19 | 1.34
x2 = 0.0008969, x1 = 0.003608 | 0.964 | 1.1 | 1.23
x2 = 0.0008974, x1 = 0.003092 | 0.861 | 0.974 | 1.1
x2 = 0.0008979, x1 = 0.002527 | 0.74 | 0.84 | 0.942
x2 = 0.0008985, x1 = 0.001896 | 0.592 | 0.67 | 0.751
x2 = 0.0008988, x1 = 0.001509 | 0.493 | 0.557 | 0.623
x2 = 0.0008992, x1 = 0.001132 | 0.388 | 0.437 | 0.489
x2 = 0.0008995, x1 = 0.0007259 | 0.276 | 0.309 | 0.343
x2 = 0.001788, x1 = 0.005721 | – | 1.4 | –
x2 = 0.001788, x1 = 0.005723 | 1.23 | – | –
x2 = 0.001788, x1 = 0.005981 | 1.26 | 1.44 | –
x2 = 0.001789, x1 = 0.00542 | – | 1.36 | –
x2 = 0.001789, x1 = 0.005422 | 1.19 | – | –
x2 = 0.00179, x1 = 0.004736 | – | 1.26 | –
x2 = 0.00179, x1 = 0.004738 | 1.11 | – | –
x2 = 0.00179, x1 = 0.005091 | 1.15 | 1.31 | –
x2 = 0.001791, x1 = 0.004351 | 1.06 | 1.2 | –
x2 = 0.001792, x1 = 0.003932 | 0.991 | 1.12 | –
x2 = 0.001793, x1 = 0.002972 | – | 0.917 | –
x2 = 0.001793, x1 = 0.002974 | 0.81 | – | –
x2 = 0.001793, x1 = 0.003476 | 0.909 | 1.03 | –
x2 = 0.001794, x1 = 0.002419 | 0.692 | 0.785 | –
x2 = 0.001796, x1 = 0.001458 | 0.463 | 0.521 | –
x2 = 0.001796, x1 = 0.001805 | 0.55 | 0.621 | –
x2 = 0.001797, x1 = 0.0007114 | 0.261 | 0.293 | –
x2 = 0.001797, x1 = 0.001099 | 0.365 | 0.411 | –
